{"source": "patent US9795646B2", "about": "“Boswellia oil, its fractions and compositions for enhancing brain function” (LAILA NUTRACEUTICALS, priority 2010, dated 2017)", "assay_type_in_all_cases": "cell-based", "key": {"[1]": {"biological_target": "T1, acetylcholine esterase (AChE) (Rattus norvegicus, UniProt P37136)", "T1 construct": "The cell extracts were used as samples for measuring the acetylcholine esterase (AChE) activity; endogenous in cells; host or cells: rat pheochromocytoma PC 12 cells, induced with β-amyloid peptide", "T1 sequence (P37136 32-614)": "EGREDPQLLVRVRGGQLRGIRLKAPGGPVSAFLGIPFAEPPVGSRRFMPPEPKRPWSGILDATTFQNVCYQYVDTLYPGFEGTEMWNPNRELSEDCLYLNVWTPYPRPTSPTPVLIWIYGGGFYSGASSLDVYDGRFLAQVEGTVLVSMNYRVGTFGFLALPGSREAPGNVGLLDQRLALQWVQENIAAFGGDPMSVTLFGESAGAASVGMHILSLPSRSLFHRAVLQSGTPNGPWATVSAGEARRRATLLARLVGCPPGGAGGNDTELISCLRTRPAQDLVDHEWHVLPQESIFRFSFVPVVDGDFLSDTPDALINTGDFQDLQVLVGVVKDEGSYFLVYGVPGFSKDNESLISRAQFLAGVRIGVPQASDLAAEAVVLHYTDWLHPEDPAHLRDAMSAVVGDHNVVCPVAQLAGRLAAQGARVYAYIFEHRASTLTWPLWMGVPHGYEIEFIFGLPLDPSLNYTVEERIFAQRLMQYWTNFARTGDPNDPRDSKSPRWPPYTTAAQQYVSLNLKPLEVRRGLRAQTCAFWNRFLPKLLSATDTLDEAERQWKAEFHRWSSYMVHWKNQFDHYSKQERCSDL", "assay": "Acetylcholine esterase inhibitory activity in β-amyloid peptide induced PC 12 cells", "conditions": "Beta Amyloid induced PC12 cells, Table 8", "description": "As a part of developing new agents for improving brain/mental function and alleviating disease conditions related to cognition and memory deficits, a large number of plant extracts have been screened for their inhibitory property on Acetylcholinesterase enzyme activity. The assay was performed in vitro by the method of Ellman et al., with minor modifications, using acetylthiocholine iodide as a substrate (Lee J. H., et. al. Arch Pharm Res 2004, 27(1): 53-56). […] Its acetylcholinesterase inhibitory activity was also evaluated by a cell based in vitro assay in Rat pheochromocytoma PC 12 cells. […] Rat pheochromocytoma PC 12 cells were equally distributed with phenol red free Dulbecco's modified Eagle's red medium (DMEM) (Sigma Life Science, USA) containing 10% fetal bovine serum (FBS) in 24-well plate. […] Thereafter, cells were induced with 1 μg/mL of β-amyloid peptide (Calbiochem, USA) for 24 h at 37° C. After 24 h, cells were collected and washed twice with 1×PBS by centrifugation at 1200 rpm for 5 min at 4° C. The cell extracts were prepared in solubilization buffer and the cell lysates were analyzed for acetylcholine esterase (AChE) activity.\nThe inhibitory property on the enzyme activity was assessed in β-amyloid peptide induced-rat pheochromocytoma PC 12 cells. Rat pheochromocytoma PC 12 cells were equally distributed with phenol red free Dulbecco's modified Eagle's red medium (DMEM) (Sigma Life Science, USA) containing 10% fetal bovine serum (FBS) in 24-well plate. […] Thereafter, cells were induced with 1 μg/mL of β-amyloid peptide (Calbiochem, USA) for 24 h at 37° C. After 24 h, cells were collected and washed twice with 1×PBS by centrifugation at 1200 rpm for 5 min at 4° C. Cell extracts were prepared in solubilization buffer (10 mM Tris, pH 7.2; 100 mM NaCl, 50 mM MgCl2, 1% Triton X-100). The cell extracts were used as samples for measuring the acetylcholine esterase (AChE) activity.\nCell extract samples (100 μl) were dispensed into each well of 96-well microtitre plate. Fifty micro liters of DTNB (Dithiobisnitro benzoate) solution was added to each well and incubated for 5 min at room temperature. After incubation, 50 μl of acetyl choline iodide solution was added to each well and absorbance was read immediately at 405 nm for 12 min at 2 min intervals. A standard curve was constructed by using serial concentrations of acetyl cholinesterase (0-100 mU). Total protein present in 100 μl aliquot of cell extract was calculated by Bradford method and the enzyme activity was normalized and expressed as unit activity per milligram of protein."}, "[2]": {"tested_on": "RAW 264.7 mouse macrophages", "assay": "Assay for measuring reactive oxygen species (ROS), DCFH-DA, H2O2", "conditions": "H2O2 treated RAW 264.7 cells", "description": "Formation of ROS was measured using of the fluorescent probe DCFH-DA. The method is based on the incubation of the RAW 264.7 mouse macrophages with DCFH-DA, which diffuses passively through the cellular membrane. Intracellular esterase activity results in the formation of DCFH, which emits fluorescence when oxidized to 20, 70-dichlorofluorescein (DCF). Briefly, the cells (final concentration 2×10^6/ml suspension) were incubated with DCFH-DA ([…]) in HEPES-buffered (20 mM) HBSS (CaCl2 1.26 mM, KCL 5.37 mM, KH2PO4 0.44 mM; MgCl2\n0.49 mM, MgSO4 0.41 mM, NaCl 140 mM, NaHCO3 4.17 mM, Na2HPO4 0.34 mM) with glucose (5 mM) at 37° C. for 15 min. Following centrifugation, the extracellular buffer with DCFH-DA was exchanged with fresh buffer and the suspension was mixed gently. […] Fluorescence was recorded using excitation wavelength 485 nm, emission wavelength 530 nm in a Modulus luminescence spectrometer (Turner Biosystems, USA) for 120 min. Results are calculated as area under the curve (AUC) and the percentage of inhibition of intracellular ROS generation was calculated from the cultures treated with H2O2."}, "[3]": {"tested_on": "IMR32 human neuroblastoma cells", "assay": "MTT cell proliferation assay, protection from oxidative stress induced cytotoxic damage", "conditions": "vehicle control 100.00, H2O2 alone 78.71", "description": "Briefly, IMR32 human neuroblastoma cells were cultivated in Dulbecco's modified Eagle's red medium (DMEM) (Sigma Life Science, USA) containing 10% fetal bovine serum (FBS). Equal number of IMR32 cells was seeded in to each well of 96 well microplate and incubated at 37° C. with 5% CO2. […] Control wells were supplemented with 0.05% DMSO. After 72 h of treatment, equal volume of MTT reagent (R&D Systems, USA) was added to each well and incubated for 4 h. Thereafter, 50 μl of solublization buffer (R&D Systems, USA) was added to each well to solubilize the colored formazan crystals produced by the reduction of MTT. After 24 h, the optical density was measured at 550 nm using microplate reader (Bio-Rad, USA). In each assay, the vehicle control and the treatments were done in quadruplicates. The average OD obtained in the vehicle control wells is considered as the cell proliferation index of 100."}}}
{"smiles": "COc1c(O)cc2oc3cc(O)c(CC=C(C)C)c(O)c3c(=O)c2c1CC=C(C)C", "note": "[α-mangostin]", "values": [{"measurement": "% inhibition in Acetylcholinesterase (AChE) activity", "setting": "[1]; 100 ng/ml", "result": 26.83, "unit": "%"}, {"measurement": "% inhibition in Acetylcholinesterase (AChE) activity", "setting": "[1]; 250 ng/ml", "result": 29.48, "unit": "%"}, {"measurement": "Inhibition of Reactive Oxygen Species (ROS) generation (IC50)", "setting": "[2]", "result": 49.817, "unit": "µg/mL"}, {"measurement": "Cell proliferation Index", "setting": "[3]; 10 ng/ml with 250 uM H2O2, 72 h", "result": 80.32}, {"measurement": "Cell proliferation Index", "setting": "[3]; 25 ng/ml with 250 uM H2O2, 72 h", "result": 86.78}, {"measurement": "Cell proliferation Index", "setting": "[3]; 50 ng/ml with 250 uM H2O2, 72 h", "result": 87.21}, {"measurement": "Cell proliferation Index", "setting": "[3]; 100 ng/ml with 250 uM H2O2, 72 h", "result": 91.78}]}
